Measurements from publication PMC5218480 (PLoS ONE, 2017).

Test system: MV-4-11 cells
Assay: Gene expression microarray analysis (Affymetrix PrimeView) and GSEA
Assay type: cell-based, human
Set-up: RFU PODN (11730768_x_at) / Fold change /veh PODN (11730768_x_at) / RFU LINC00158 (11744669_a_at) / Fold change /veh LINC00158 (11744669_a_at) / RFU DUSP10 (11751237_a_at) / Fold change /veh DUSP10 (11751237_a_at) / RFU ID3 (11757404_x_at) / Fold change /veh ID3 (11757404_x_at) / RFU PLEKHG5 (11737974_s_at) / Fold change /veh PLEKHG5 (11737974_s_at) / RFU LRRC4B (11730491_at) / Fold change /veh LRRC4B (11730491_at) / RFU GIMAP4 (11747438_a_at) / Fold change /veh GIMAP4 (11747438_a_at) / RFU KRT8 (11758183_x_at) / Fold change /veh KRT8 (11758183_x_at) / RFU CNN1 (11734310_a_at) / Fold change /veh CNN1 (11734310_a_at) / RFU VPS37D (11726825_at) / Fold change /veh VPS37D (11726825_at) / RFU C10orf10 (11716522_x_at) / Fold change /veh C10orf10 (11716522_x_at) / RFU KIR2DL2 /// KIR2DL4 /// KIR2DL5A /// KIR2DL5B /// KIR2DS1 /// KIR2DS2 /// KIR2DS3 /// KIR2DS4 /// KIR3DL3 /// KIR3DL3 /// KIR3DS1 (11738374_at) / Fold change /veh KIR2DL2 /// KIR2DL4 /// KIR2DL5A /// KIR2DL5B /// KIR2DS1 /// KIR2DS2 /// KIR2DS3 /// KIR2DS4 /// KIR3DL3 /// KIR3DL3 /// KIR3DS1 (11738374_at) / RFU C1QL1 (11718748_at) / Fold change /veh C1QL1 (11718748_at) / RFU TMPRSS4 (11747572_a_at) / Fold change /veh TMPRSS4 (11747572_a_at) / RFU HAMP (11756126_x_at) / Fold change /veh HAMP (11756126_x_at) / RFU RNFT2 (11725882_a_at) / Fold change /veh RNFT2 (11725882_a_at) / RFU NR4A2 (11747474_a_at) / Fold change /veh NR4A2 (11747474_a_at) / RFU ABCC12 (11746883_a_at) / Fold change /veh ABCC12 (11746883_a_at) / RFU TMEM136 (11760407_x_at) / Fold change /veh TMEM136 (11760407_x_at) / RFU CLDN22 /// WWC2 (11732394_at) / Fold change /veh CLDN22 /// WWC2 (11732394_at) / RFU HLA-DPB1 (11760878_x_at) / Fold change /veh HLA-DPB1 (11760878_x_at) / RFU SPINT1 (11716480_a_at) / Fold change /veh SPINT1 (11716480_a_at) / RFU GAP43 (11754022_s_at) / Fold change /veh GAP43 (11754022_s_at) / RFU A4GNT (11735810_at) / Fold change /veh A4GNT (11735810_at) / RFU PRB3 (11715151_x_at) / Fold change /veh PRB3 (11715151_x_at) / RFU TUBB4B (11761932_at) / Fold change /veh TUBB4B (11761932_at) / RFU CAPN14 (11732068_a_at) / Fold change /veh CAPN14 (11732068_a_at) / RFU TMCC2 (11721928_a_at) / Fold change /veh TMCC2 (11721928_a_at) / RFU IRGQ (11745062_a_at) / Fold change /veh IRGQ (11745062_a_at) / RFU FAM174B (11720279_a_at) / Fold change /veh FAM174B (11720279_a_at) / RFU TMPRSS4 (11748680_a_at) / Fold change /veh TMPRSS4 (11748680_a_at) / RFU FAM212B (11763350_a_at) / Fold change /veh FAM212B (11763350_a_at) / RFU PLEKHG5 (11743358_a_at) / Fold change /veh PLEKHG5 (11743358_a_at) / RFU ZSCAN30 (11745921_a_at) / Fold change /veh ZSCAN30 (11745921_a_at) / RFU CMKLR1 (11741424_a_at) / Fold change /veh CMKLR1 (11741424_a_at) / RFU LOC101060620 /// MAPK8IP1 (11723275_at) / Fold change /veh LOC101060620 /// MAPK8IP1 (11723275_at) / RFU SPTSSB (11747773_x_at) / Fold change /veh SPTSSB (11747773_x_at) / RFU PRSS12 (11739890_at) / Fold change /veh PRSS12 (11739890_at) / RFU BIN1 (11741810_x_at) / Fold change /veh BIN1 (11741810_x_at) / RFU WNT11 (11732464_a_at) / Fold change /veh WNT11 (11732464_a_at) / RFU C10orf10 (11716521_a_at) / Fold change /veh C10orf10 (11716521_a_at) / RFU C5orf56 (11738089_at) / Fold change /veh C5orf56 (11738089_at) / RFU CYB561 (11721691_x_at) / Fold change /veh CYB561 (11721691_x_at) / RFU ANKRD19P (11752326_a_at) / Fold change /veh ANKRD19P (11752326_a_at) / RFU OR2T12 /// OR2T33 /// OR2T8 (11738714_s_at) / Fold change /veh OR2T12 /// OR2T33 /// OR2T8 (11738714_s_at) / RFU VCAN (11748164_a_at) / Fold change /veh VCAN (11748164_a_at) / RFU JSRP1 (11732532_at) / Fold change /veh JSRP1 (11732532_at) / RFU KRTAP10-11 (11738290_x_at) / Fold change /veh KRTAP10-11 (11738290_x_at) / RFU MYO3A (11730013_a_at) / Fold change /veh MYO3A (11730013_a_at) / RFU EBF3 (11725865_a_at) / Fold change /veh EBF3 (11725865_a_at) / RFU CAMK2N1 (11719241_x_at) / Fold change /veh CAMK2N1 (11719241_x_at) / RFU C5orf56 (11738088_a_at) / Fold change /veh C5orf56 (11738088_a_at) / RFU OLFML3 (11715873_a_at) / Fold change /veh OLFML3 (11715873_a_at) / RFU LOC100653217 /// NTM (11731650_a_at) / Fold change /veh LOC100653217 /// NTM (11731650_a_at) / RFU MAPK11 (11762145_a_at) / Fold change /veh MAPK11 (11762145_a_at) / RFU FIZ1 (11724087_x_at) / Fold change /veh FIZ1 (11724087_x_at) / RFU OASL (11726364_x_at) / Fold change /veh OASL (11726364_x_at) / RFU SOX15 (11748057_x_at) / Fold change /veh SOX15 (11748057_x_at) / RFU CD79A (11719716_a_at) / Fold change /veh CD79A (11719716_a_at) / RFU HIST1H1D (11736915_at) / Fold change /veh HIST1H1D (11736915_at) / RFU CASKIN2 (11723855_a_at) / Fold change /veh CASKIN2 (11723855_a_at) / RFU LOC730098 (11760151_x_at) / Fold change /veh LOC730098 (11760151_x_at) / RFU OR4N2 (11742367_at) / Fold change /veh OR4N2 (11742367_at) / RFU PRRT2 (11749266_a_at) / Fold change /veh PRRT2 (11749266_a_at) / RFU SNX32 (11753110_a_at) / Fold change /veh SNX32 (11753110_a_at) / RFU CDHR5 (11726645_a_at) / Fold change /veh CDHR5 (11726645_a_at) / RFU RCAN1 (11760418_a_at) / Fold change /veh RCAN1 (11760418_a_at) / RFU FAM167A (11723789_a_at) / Fold change /veh FAM167A (11723789_a_at) / RFU FAM26E (11764081_at) / Fold change /veh FAM26E (11764081_at) / RFU ISYNA1 (11749810_s_at) / Fold change /veh ISYNA1 (11749810_s_at) / RFU ACY1 (11761880_at) / Fold change /veh ACY1 (11761880_at) / RFU 11764098_at / Fold change /veh 11764098_at / RFU SAMD14 (11745864_x_at) / Fold change /veh SAMD14 (11745864_x_at) / RFU NPB (11741838_a_at) / Fold change /veh NPB (11741838_a_at) / RFU TMPRSS6 (11731388_a_at) / Fold change /veh TMPRSS6 (11731388_a_at) / RFU KRTAP10-2 (11738614_at) / Fold change /veh KRTAP10-2 (11738614_at) / RFU ARHGAP8 /// PRR5-ARHGAP8 (11727945_x_at) / Fold change /veh ARHGAP8 /// PRR5-ARHGAP8 (11727945_x_at) / RFU KRTAP5-7 /// NADSYN1 (11734609_at) / Fold change /veh KRTAP5-7 /// NADSYN1 (11734609_at) / RFU RASL12 (11751679_a_at) / Fold change /veh RASL12 (11751679_a_at) / RFU CDKN2B (11736163_a_at) / Fold change /veh CDKN2B (11736163_a_at) / RFU PRF1 (11729649_at) / Fold change /veh PRF1 (11729649_at) / RFU, ZNF638 /// ZNF638-IT1 / Fold change vs veh, ZNF638 /// ZNF638-IT1 / RFU, PANK3 / Fold change vs veh, PANK3 / RFU, SH3YL1 / Fold change vs veh, SH3YL1 / RFU, ZEB2 / Fold change vs veh, ZEB2 / RFU, NRIP1 / Fold change vs veh, NRIP1 / RFU, PTTG1IP / Fold change vs veh, PTTG1IP / RFU, CAPN2 / Fold change vs veh, CAPN2 / RFU, MED14 / Fold change vs veh, MED14 / RFU, SNORA58 / Fold change vs veh, SNORA58 / RFU, C1orf63 / Fold change vs veh, C1orf63 / RFU, LRRFIP1 / Fold change vs veh, LRRFIP1 / RFU, NDUFAF7 / Fold change vs veh, NDUFAF7 / RFU, SLC12A2 / Fold change vs veh, SLC12A2 / RFU, IBTK / Fold change vs veh, IBTK / RFU, ESF1 / Fold change vs veh, ESF1 / Fold change vs veh, TMEM50B / RFU, TAOK1 / Fold change vs veh, TAOK1 / RFU, ACBD3 / Fold change vs veh, ACBD3 / RFU, TMA16 / Fold change vs veh, TMA16 / RFU, RWDD3 / Fold change vs veh, RWDD3 / RFU, BCAT1 / Fold change vs veh, BCAT1 / RFU, EDEM3 / Fold change vs veh, EDEM3 / RFU, TMEM33 / Fold change vs veh, TMEM33 / RFU, WDR75 / Fold change vs veh, WDR75 / RFU, AHCTF1 / Fold change vs veh, AHCTF1 / RFU, TFRC / Fold change vs veh, TFRC / RFU, ZDHHC17 / Fold change vs veh, ZDHHC17 / RFU, NOM1 / Fold change vs veh, NOM1 / RFU, ARL8B / Fold change vs veh, ARL8B / RFU, ZBTB11 / Fold change vs veh, ZBTB11 / RFU, TAMM41 / Fold change vs veh, TAMM41 / RFU, KIAA1704 /// LOC100996395 / Fold change vs veh, KIAA1704 /// LOC100996395 / RFU, ING1 / Fold change vs veh, ING1 / RFU, TRMT61B / Fold change vs veh, TRMT61B / RFU, FUBP3 / Fold change vs veh, FUBP3 / RFU, TP53 / Fold change vs veh, TP53 / RFU, TNKS2 / Fold change vs veh, TNKS2 / RFU, ZFP14 / Fold change vs veh, ZFP14 / RFU, ACTR2 / Fold change vs veh, ACTR2 / RFU, PPP3R1 / Fold change vs veh, PPP3R1 / RFU, PIK3R1 / Fold change vs veh, PIK3R1 / RFU, HNRNPA1 / Fold change vs veh, HNRNPA1 / RFU, RNF170 / Fold change vs veh, RNF170 / RFU, ZNF28 / Fold change vs veh, ZNF28 / RFU, RNGTT / Fold change vs veh, RNGTT / RFU, OGT / Fold change vs veh, OGT / RFU, BRD1 / Fold change vs veh, BRD1 / RFU, MARS / Fold change vs veh, MARS / RFU, ZNF655 / Fold change vs veh, ZNF655 / RFU, FAHD1 / Fold change vs veh, FAHD1 / RFU, BDP1 / Fold change vs veh, BDP1 / RFU, LRRCC1 / Fold change vs veh, LRRCC1 / RFU, ARID1A / Fold change vs veh, ARID1A / RFU, ZNF146 / Fold change vs veh, ZNF146 / RFU, ZNF330 / Fold change vs veh, ZNF330 / RFU, GPN3 / Fold change vs veh, GPN3 / RFU, C9orf123 / Fold change vs veh, C9orf123 / RFU, N4BP2L2 / Fold change vs veh, N4BP2L2 / RFU, ARFIP1 / Fold change vs veh, ARFIP1 / RFU, FAM179B / Fold change vs veh, FAM179B / RFU, BCL10 / Fold change vs veh, BCL10 / RFU, UHRF1BP1L / Fold change vs veh, UHRF1BP1L / RFU, BET1 / Fold change vs veh, BET1 / RFU, CNOT2 / Fold change vs veh, CNOT2 / RFU, ZNF268 / Fold change vs veh, ZNF268 / Fold change vs veh, ZNF507 / RFU, DGCR2 / Fold change vs veh, DGCR2 / RFU, WDSUB1 / Fold change vs veh, WDSUB1 / Fold change vs veh, HSP90B1 /// MIR3652 / RFU, ADSS / Fold change vs veh, ADSS / RFU, GK / Fold change vs veh, GK / RFU, ZNF148 / Fold change vs veh, ZNF148 / RFU, TAF9 / Fold change vs veh, TAF9 / RFU, SLC1A5 / Fold change vs veh, SLC1A5 / RFU, SLMO2 / Fold change vs veh, SLMO2 / RFU, ABCC4 / Fold change vs veh, ABCC4 / RFU, LOC101060439 /// RAP1B / Fold change vs veh, LOC101060439 /// RAP1B / RFU, RFX7 / Fold change vs veh, RFX7 / RFU, GTPBP10 / Fold change vs veh, GTPBP10 / RFU, CNEP1R1 / Fold change vs veh, CNEP1R1 / RFU, BIVM-ERCC5 /// ERCC5 / Fold change vs veh, BIVM-ERCC5 /// ERCC5 / RFU, ILF3 / Fold change vs veh, ILF3 / RFU 11762660_at / Fold change /veh 11762660_at / RFU VCAN (11757783_s_at) / Fold change /veh VCAN (11757783_s_at) / RFU DDX43 (11728927_at) / Fold change /veh DDX43 (11728927_at) / RFU KRT8 (11758188_x_at) / Fold change /veh KRT8 (11758188_x_at) / RFU NKD1 (11759106_at) / Fold change /veh NKD1 (11759106_at) / RFU SRD5A1 (11742802_a_at) / Fold change /veh SRD5A1 (11742802_a_at) / RFU TPSAB1 /// TPSB2 (11721975_s_at) / Fold change /veh TPSAB1 /// TPSB2 (11721975_s_at) / RFU GSTM3 (11746129_a_at) / Fold change /veh GSTM3 (11746129_a_at) / RFU IL23R (11737362_x_at) / Fold change /veh IL23R (11737362_x_at) / RFU TMEM51 (11727254_a_at) / Fold change /veh TMEM51 (11727254_a_at) / RFU PIWIL2 (11732686_x_at) / Fold change /veh PIWIL2 (11732686_x_at) / RFU ORM1 (11744905_x_at) / Fold change /veh ORM1 (11744905_x_at) / RFU CCDC152 (11743942_at) / Fold change /veh CCDC152 (11743942_at) / RFU ECM1 (11717891_a_at) / Fold change /veh ECM1 (11717891_a_at) / RFU IL23R (11748794_a_at) / Fold change /veh IL23R (11748794_a_at) / RFU TNFAIP8L3 (11732012_x_at) / Fold change /veh TNFAIP8L3 (11732012_x_at) / RFU MBOAT4 (11741988_at) / Fold change /veh MBOAT4 (11741988_at) / RFU 11764193_at / Fold change /veh 11764193_at / RFU TMEM53 (11763286_at) / Fold change /veh TMEM53 (11763286_at) / RFU MAGEB2 (11727129_at) / Fold change /veh MAGEB2 (11727129_at) / RFU TMEM200A (11744735_a_at) / Fold change /veh TMEM200A (11744735_a_at) / RFU CCDC152 (11751479_a_at) / Fold change /veh CCDC152 (11751479_a_at) / RFU FAM211A (11726209_a_at) / Fold change /veh FAM211A (11726209_a_at) / RFU RGS16 (11746705_a_at) / Fold change /veh RGS16 (11746705_a_at) / RFU VCAN (11755009_s_at) / Fold change /veh VCAN (11755009_s_at) / RFU RHOB (11743442_s_at) / Fold change /veh RHOB (11743442_s_at) / RFU RGS16 (11720943_a_at) / Fold change /veh RGS16 (11720943_a_at) / RFU RGS16 (11720944_at) / Fold change /veh RGS16 (11720944_at) / RFU, VPS4B / Fold change vs veh, VPS4B / RFU, CREB1 / Fold change vs veh, CREB1 / RFU, DNAJC13 / Fold change vs veh, DNAJC13 / RFU, GNAQ / Fold change vs veh, GNAQ / RFU, CDK5R1 / Fold change vs veh, CDK5R1 / RFU, ZRANB3 / Fold change vs veh, ZRANB3 / RFU, CUL4A / Fold change vs veh, CUL4A / RFU, CCNY / Fold change vs veh, CCNY / RFU, UFL1 / Fold change vs veh, UFL1 / RFU, COG3 / Fold change vs veh, COG3 / RFU, DIAPH2 / Fold change vs veh, DIAPH2 / RFU, SKA2 / Fold change vs veh, SKA2 / RFU, AFF3 / Fold change vs veh, AFF3 / RFU, LMF1 / Fold change vs veh, LMF1 / RFU, IPO11 / Fold change vs veh, IPO11 / RFU, DFFB / Fold change vs veh, DFFB / RFU, FOXP1 / Fold change vs veh, FOXP1 / RFU, CARD8 / Fold change vs veh, CARD8 / RFU, STRN3 / Fold change vs veh, STRN3 / RFU, ADK / Fold change vs veh, ADK / RFU, RASSF2 / Fold change vs veh, RASSF2 / RFU, WIPF1 / Fold change vs veh, WIPF1 / RFU, LARP1B / Fold change vs veh, LARP1B / RFU, RASA1 / Fold change vs veh, RASA1 / RFU, RB1 / Fold change vs veh, RB1 / RFU, PPFIA1 / Fold change vs veh, PPFIA1 / RFU, MAT2A / Fold change vs veh, MAT2A / RFU, CCT5 / Fold change vs veh, CCT5 / RFU, WDR92 / Fold change vs veh, WDR92 / RFU, CUX1 / Fold change vs veh, CUX1 / RFU, TTC7A / Fold change vs veh, TTC7A / RFU, TMEM135 / Fold change vs veh, TMEM135 / RFU, DEPTOR / Fold change vs veh, DEPTOR / RFU, CPM / Fold change vs veh, CPM / RFU, DNAJB6 / Fold change vs veh, DNAJB6 / RFU, CACNA2D3 / Fold change vs veh, CACNA2D3 / RFU, DTX4 / Fold change vs veh, DTX4 / RFU, TFCP2 / Fold change vs veh, TFCP2 / RFU, GMCL1 /// GMCL1P1 / Fold change vs veh, GMCL1 /// GMCL1P1 / RFU, AEBP2 / Fold change vs veh, AEBP2 / RFU, SNHG1 /// SNORD22 /// SNORD25 /// SNORD26 /// SNORD27 /// SNORD28 /// SNORD29 /// SNORD31 / Fold change vs veh, SNHG1 /// SNORD22 /// SNORD25 /// SNORD26 /// SNORD27 /// SNORD28 /// SNORD29 /// SNORD31 / Fold change (Aza/veh), C12orf56 (ProbeSet 11735607_a_at) / Fold change (ACY-1035/veh), C12orf56 (ProbeSet 11735607_a_at) / Fold change (Aza/veh), FGFR1OP (ProbeSet 11751329_s_at) / Fold change (ACY-1035/veh), FGFR1OP (ProbeSet 11751329_s_at) / Fold change (Aza/veh), VPS36 (ProbeSet 11739960_a_at) / Fold change (ACY-1035/veh), VPS36 (ProbeSet 11739960_a_at) / RFU SYPL1 (11715823_x_at) / Fold change /veh SYPL1 (11715823_x_at) / RFU IGFBP7 (11715501_s_at) / Fold change /veh IGFBP7 (11715501_s_at) / RFU REEP3 (11722064_at) / Fold change /veh REEP3 (11722064_at) / RFU IGLL1 (11728026_x_at) / Fold change /veh IGLL1 (11728026_x_at): dose or concentration left out as unconfirmed
Settings: MV-4-11 cells, 48 hours

Nc1ncn([C@@H]2O[C@H](CO)[C@@H](O)[C@H]2O)c(=O)n1 [azacitidine]
Fold change /veh PLEKHG5 (11737974_s_at): 1.17
